In patent publication US20220071961A1, “Dosing Regimen of Bicyclic Substituted Pyrazolone Azo Derivative” (Jiangsu Hengrui Medicine CO., LTD., priority 2019, published 2022):
Read-outs that look alike come from different tables or passages of the source.

Assay: Effect of different intervals between administration and a meal on pharmacokinetic parameters (three-period crossover, single oral dose)
Assay type: in vivo, human
Details: single oral 7.5 mg; for AUC(0-t) / AUC / Cmax / MRT / Tmax / Vd/F / half-life: male, human, plasma, po, 7.5 mg; for MRT: read-out: MRT Geomean (% CVb); for Tmax: read-out: Tmax Median; for Vd/F: read-out: Vz/F Geomean (% CVb)
Method: Embodiment 1: Study on an effect of different intervals between the administration and a meal on pharmacokinetic parameters of a compound represented by Formula I
Diethanolamine salt tablets of the compound represented by Formula I, with specifications of 2.5 mg/table and 5 mg/tablet.
15 healthy adult male subjects were recruited for the trial. They were randomly divided into three trial groups which correspond to three dosing sequences, i.e. ABC, BCA and CAB. A cleaning period is 10 days.
Group A: every subject orally took the test products (one T1: 2.5 mg/tablet and one T2: 5 mg/tablet) once on an empty stomach with 240 mL of room temperature water on the morning of the test. […] They were not allowed to drink water within 1 h before administration and 1 h after administration, but were allowed to drink water as needed for the rest time.
Group B: every subject orally took the test products (one T1: 2.5 mg/tablet and one T2: 5 mg/tablet) once on an empty stomach with 240 mL of room temperature water on the morning of the test. They ate high-fat and high-calorie standard meals 1 h after administration, needed to stagger the timing of the breakfast and the blood sampling, and needed to finish the breakfast within 30 min. They were not allowed to drink water within 1 h before administration and 1 h after administration, but were allowed to drink water as needed for the rest time.
Group C: every subject orally took the test products (one T1: 2.5 mg/tablet and one T2: 5 mg/tablet) once on an empty stomach with 240 mL of room temperature water on the morning of the test. They ate high-fat and high-calorie standard meals 2 h after administration, needed to stagger the timing of the breakfast and the blood sampling, and needed to finish the breakfast within 30 min. They were not allowed to drink water within 1 h before administration and 1 h after administration, but were allowed to drink water as needed for the rest time.
The high-fat meal: calories: 800 to 1,000 kcal, composed of 150 kcal of protein, 250 kcal of carbohydrates and 500 to 600 kcal of fats, wherein about 50% of the calories come from the fats. The ingredients and proportions of the standard meals needed to be consistent in each test period. The specific administration sequences are shown in a table below. An effect of food on the medicine was analyzed by sampling blood at fixed time points before and after administration and measuring vital signs.
In the test, there were Group A (without a breakfast after administration), Group B (with a high-fat and high-calorie standard meal 1 h after administration) and Group C (with a high-fat and high-calorie standard meal 2 h after administration) which correspond to threes administration sequences, i.e. ABC, BCA and CAB. A non-compartmental model (NCA) of WinNonlin 7.0 version was used to calculate PK parameters according to the actual sampling time, and software of SAS 9.4 version was used to list and make descriptive statistical analysis on the PK parameters. Results of descriptive statistical analysis of the PK parameters of the compound represented by Formula I of the subjects in the groups (Group A, Group B and Group C) with different intervals between the administration and a meal are shown in Table 2.
A mixed-effects model was used to perform analysis of variance (ANOVA) on the PK parameters (Cmax, AUC0-t and AUC0-τ), which are subjected to natural log conversion, of the subjects in the groups with different intervals between administration and a meal by using the software of SAS 9.4 version.

[1] = Group B vs Group A (meal 1 h after administration vs no food)
[2] = Group B vs Group C (meal 1 h vs meal 2 h after administration)
[3] = Group C vs Group A (meal 2 h after administration vs no food)
[4] = food 1 h after administration relative to food 2 h after administration
[5] = food 1 h after administration relative to no food after administration
[6] = food 2 h after administration relative to no food after administration
[7] = Group A, without a breakfast after administration, N = 15
[8] = Group B, high-fat meal 1 h after administration, N = 14
[9] = Group C, high-fat meal 2 h after administration, N = 14

For `CC1=NN(c2ccc3c(c2)CCCC3)C(=O)/C1=N\Nc1cccc(-c2ccc(C(=O)O)o2)c1O` [compound represented by Formula I], the “AUC0-t GeoLSM Ratio” value [1] was 23.65%, the “AUC0-ē GeoLSM Ratio” value [1] was 25.37% and the “Cmax GeoLSM Ratio” value [1] was 44.01%. The “AUC0-t GeoLSM Ratio” value [2] was 66.10%, the “AUC0-ē GeoLSM Ratio” value [2] was 65.76% and the “Cmax GeoLSM Ratio” value [2] was 78.12%. The “AUC0-t GeoLSM Ratio” value [3] was 35.78%, the “AUC0-ē GeoLSM Ratio” value [3] was 38.57% and the “Cmax GeoLSM Ratio” value [3] was 56.33%. For the same compound, the “AUC0-τ reduced by” value [4] was roughly 34%, the “Cmax reduced by” value [4] was “about 22%” and the “AUC0-τ reduced by” value [5] was roughly 75%. For the same compound, the “Cmax reduced by” value [5] was “about 56%”, the “AUC0-τ reduced by” value [6] was roughly 61% and the “Cmax reduced by” value [6] was “about 44%”. For the same compound, the AUC(0-t) (Group A, no food after administration, n 15, mixed-effects ANOVA, read-out: AUC0-t GeoLSM (geometric least squares mean)) was 857 ng·h/mL, the AUC (Group A, no food after administration, n 15, mixed-effects ANOVA, read-out: AUC0-ē GeoLSM (geometric least squares mean)) was 929 ng·h/mL and the Cmax (Group A, no food after administration, n 15, mixed-effects ANOVA, read-out: Cmax GeoLSM (geometric least squares mean)) was 35.1 ng/mL. The AUC(0-t) (Group A, without a breakfast after administration, N = 15, read-out: AUC0-t Geomean (% CVb)) was 857 ng·h/mL, the AUC(0-t) (Group A, without a breakfast after administration, N = 15, read-out: AUC0-t Mean SD) was 1040 ng·h/mL and the AUC (Group A, without a breakfast after administration, N = 15, read-out: AUC0-ē Geomean (% CVb)) was 929 ng·h/mL. The AUC (Group A, without a breakfast after administration, N = 15, read-out: AUC0-ē Mean SD) was 1110 ng·h/mL, the Cmax (Group A, without a breakfast after administration, N = 15, read-out: Cmax Geomean (% CVb)) was 35.1 ng/mL and the Cmax (Group A, without a breakfast after administration, N = 15, read-out: Cmax Mean SD) was 39.2 ng/mL. For the same compound, the MRT [7] was 32.1 h, the Tmax [7] was 7 h and the Vd/F [7] was 308 L. It also gave a half-life (Group A, without a breakfast after administration, N = 15, read-out: t1/2 Geomean (% CVb) (converted)) of 26.4 h, a half-life (Group A, without a breakfast after administration, N = 15, read-out: t1/2 Mean SD (converted)) of 29.3 h and a Tmax (Group B, high-fat and high-calorie standard meal 1 h after administration, N = 14) of 2 h. For the same compound, the AUC(0-t) (Group B, high-fat meal 1 h after administration, N = 14, read-out: AUC0-t Geomean (% CVb)) was 202 ng·h/mL, the AUC(0-t) (Group B, high-fat meal 1 h after administration, N = 14, read-out: AUC0-t Mean SD) was 314 ng·h/mL and the AUC (Group B, high-fat meal 1 h after administration, N = 14, read-out: AUC0-ē Geomean (% CVb)) was 235 ng·h/mL. It also gave an AUC (Group B, high-fat meal 1 h after administration, N = 14, read-out: AUC0-ē Mean SD) of 347 ng·h/mL, a Cmax (Group B, high-fat meal 1 h after administration, N = 14, read-out: Cmax Geomean (% CVb)) of 15.4 ng/mL and a Cmax (Group B, high-fat meal 1 h after administration, N = 14, read-out: Cmax Mean SD) of 21.1 ng/mL. For the same compound, the MRT [8] was 17.4 h, the Vd/F [8] was 531 L and the half-life (Group B, high-fat meal 1 h after administration, N = 14, read-out: t1/2 Geomean (% CVb) (converted)) was 11.6 h. For the same compound, the half-life (Group B, high-fat meal 1 h after administration, N = 14, read-out: t1/2 Mean SD (converted)) was 13.1 h, the AUC(0-t) (Group B, meal 1 h after administration, n 14, mixed-effects ANOVA, read-out: AUC0-t GeoLSM (geometric least squares mean)) was 203 ng·h/mL and the AUC (Group B, meal 1 h after administration, n 14, mixed-effects ANOVA, read-out: AUC0-ē GeoLSM (geometric least squares mean)) was 236 ng·h/mL. It also gave a Cmax (Group B, meal 1 h after administration, n 14, mixed-effects ANOVA, read-out: Cmax GeoLSM (geometric least squares mean)) of 15.5 ng/mL, a Tmax (Group C, high-fat and high-calorie standard meal 2 h after administration, N = 14) of 5.01 h and an AUC(0-t) (Group C, high-fat meal 2 h after administration, N = 14, read-out: AUC0-t Geomean (% CVb)) of 303 ng·h/mL. The AUC(0-t) (Group C, high-fat meal 2 h after administration, N = 14, read-out: AUC0-t Mean SD) was 547 ng·h/mL, the AUC (Group C, high-fat meal 2 h after administration, N = 14, read-out: AUC0-ē Geomean (% CVb)) was 355 ng·h/mL and the AUC (Group C, high-fat meal 2 h after administration, N = 14, read-out: AUC0-ē Mean SD) was 591 ng·h/mL. For the same compound, the Cmax (Group C, high-fat meal 2 h after administration, N = 14, read-out: Cmax Geomean (% CVb)) was 19.6 ng/mL, the Cmax (Group C, high-fat meal 2 h after administration, N = 14, read-out: Cmax Mean SD) was 28.6 ng/mL and the MRT [9] was 21.4 h. For the same compound, the Vd/F [9] was 460 L, the half-life (Group C, high-fat meal 2 h after administration, N = 14, read-out: t1/2 Geomean (% CVb) (converted)) was 15.1 h and the half-life (Group C, high-fat meal 2 h after administration, N = 14, read-out: t1/2 Mean SD (converted)) was 18.6 h. It also gave an AUC(0-t) (Group C, meal 2 h after administration, n 14, mixed-effects ANOVA, read-out: AUC0-t GeoLSM (geometric least squares mean)) of 307 ng·h/mL, an AUC (Group C, meal 2 h after administration, n 14, mixed-effects ANOVA, read-out: AUC0-ē GeoLSM (geometric least squares mean)) of 358 ng·h/mL and a Cmax (Group C, meal 2 h after administration, n 14, mixed-effects ANOVA, read-out: Cmax GeoLSM (geometric least squares mean)) of 19.8 ng/mL. The “% AUCex Geomean (% CVb)” value [7] was 6.62%, the “CL/F Geomean (% CVb)” value [7] was 8.0740 L/h and the “CL/F Mean SD” value [7] was 10.4506 L/h. For the same compound, the “≅z Geomean (% CVb)” value [7] was 0.0263 h⁻¹, the “% AUCex Geomean (% CVb)” value [8] was 11.39% and the “CL/F Geomean (% CVb)” value [8] was 31.8657 L/h. The “CL/F Mean SD” value [8] was 52.4396 L/h, the “≅z Geomean (% CVb)” value [8] was 0.0600 h⁻¹ and the “% AUCex Geomean (% CVb)” value [9] was 10.57%. The “CL/F Geomean (% CVb)” value [9] was 21.1107 L/h, the “CL/F Mean SD” value [9] was 42.1126 L/h and the “≅z Geomean (% CVb)” value [9] was 0.0459 h⁻¹.
